“Also recorded” adds a separate entry of the source. Where two headings read alike, the source gives them in different places. *1 amine or outer side, *2 acyl side, *3 side chain or, on linkers, in order; H or OH if unused. Where a SMILES comes first, the peptide text is derived from it. Bridges are numbered along the chain shown (N, C = ends). Roman numbers before positions name the chains, in order. [ ]: non-standard residue; d: D form. Actinocin(9to1) = Cc1c2oc3c(C)ccc(C(=O)[*:1])c3nc-2c(C(=O)[*:2])c(N)c1=O; NMeV = CN[C@H](C(=O)O)C(C)C; Sar = CNCC(=O)O
Legend:
[1] = test system: aSynL:total ratio; assay: In vivo I-Dopa treatment of DAT-Cre/Dicer mice, aSynL:total ratio in brain tissue by RT-qPCR; design: species or system mouse
Description: (§1) 2-month old DAT-Cre/Dicer^flox/flox and DAT-Cre/Dicer^flox/+24 or forty-weeks old male PAC-Tg (SNCA)+/−;Snca+/− (a gift from Dr. Robert L. Nussbaum, University of California San Francisco, ^25) received 20 mg/kg I-Dopa with 12 mg/kg benserazide (or PBS vehicle only) by intraperitoneal injection daily for 5 days. […] 1 hour after the last dose, mice were anesthetized by inhaled isoflurane and the brains rapidly removed. The prefrontal cortex, striatum and midbrain were dissected out and stored at −80° C.
(§2) RT-qPCR analyses were performed as described ^60.

[2] = test system: human aSyn protein; assay: In vivo I-Dopa treatment of aSyn PAC transgenic mice, aSyn protein in brain tissue by ELISA; design: species or system mouse; details: 20 mg/kg i.p. daily for 5 days
Description: (§3) Mitochondria were purified using Qproteome Mitochondria Isolation Kit (Qiagen) and membrane fractions were isolated using Subcellular Protein Fractionation Kit (Pierce) following manufacturers' instructions. Human aSyn protein levels were determined using the aSyn Human ELISA kit (Invitrogen). Absorbance was read on a VersaMax ELISA Microplate Reader (Molecular Devices, Inc) at 450 nm. The amount of human aSyn was normalized to total cellular protein as determined with the DC Protein Assay Reagent kit (Bio-Rad). Mitochondrial preparations were validated by Western blot analysis for Tom20 and synaptophysin (see FIG. 12d).
as §1

[3] = test system: aSynL:total ratio; assay: aSynL:total ratio by RT-qPCR in rat primary cortical cultures; format: cell-based
Description: (§4) Cultures of rodent neurons were prepared as described in ^53. Cells were maintained in vitro for 3-5 days before drug treatments or transfection using Lipofectamine 2000 (Iinvitrogen) following manufacturer's instructions.
RT-qPCR analyses were performed as described ^60. The human aSynL:Total mRNA ratio was quantified in terms of AACt ^60 using primer pair Lh for the human long form (HaSynLfw [[…]] SEQ ID NO: 13, and HaSynLry [[…]]) SEQ ID NO: 14 and primer pair Th for human total (HaSynTfw [[…]] SEQ ID NO: 15 and HaSynTrv [[…]] SEQ ID NO: 16). For analysis of either mouse or rat, primer pairs mrL (RaSynLfw [[…]] SEQ ID NO: 17 and RaSynLrv [[…]] SEQ ID NO: 18) and mrT (RaSynTfw [[…]] SEQ ID NO: 19, RaSynTry [[…]] SEQ ID NO: 20) were used.

[4] = test system: aSynL:total ratio; assay: aSynL:total ratio in total RNA of SH-SY5Y cells by RT-qPCR (transcription inhibition); format: cell-based, human
[5] = test system: aSynL:total ratio
Description: Total RNA was isolated using a miRNeasy kit (Qiagen) and nascent RNA was purified using the Click-iT® Nascent RNA Capture Kit (Invitrogen) following manufacturer's instructions; total and nascent RNA were then subjected to RT-qPCR analysis as below.
as §2

[6] = test system: aSynL:total ratio; assay: In situ hybridization for aSyn CDS and long 3′UTR in primary cortical neuron cultures from aSyn PAC transgenic mice; format: cell-based; details: 100 μM for 24 h, DIV 4 PAC mouse cortical neurons
Description: as §4
In situ hybridization were performed using QuantiGene® ViewRNA ISH Cell Assay (Panomics) following manufacturer's instructions, with QG ViewRNA TYPE 8 Probe Sets (Panomics) designed to target either human aSyn CDS sequences (bases 264-634 from NM_000345.3; Panomics) or to target human aSynL 3′UTR sequences (bases 1180-1760 from NM_000345.3).

[7] = test system: aSyn protein; assay: Total endogenous aSyn protein by ELISA in SH-SY5Y cells; format: cell-based, human; details: 100 μM for 48 h
Description: as §3

[8] = test system: human aSyn 3′UTR; assay: Firefly luciferase-aSyn 3′UTR reporter assay in SH-SY5Y cells; format: cell-based; details: for dopamine-mediated increase in luciferase accumulation under VMAT2 overexpression: SH-SY5Y co-transfected with VMAT2 vector; for luciferase expression, Firefly/Renilla ratio, short aSyn 3′UTR vector: 100 μM for 24 hrs
Description: The human SH-SY5Y neuroblastoma cell line (ATCC) was cultured following the distributor's instructions. Cells were plated at a density of 4×10^5 cells per well (in 48-well plates) in wells coated with 0.1% gelatin (Specialty Media, Millipore) 24 hours prior to transfection. Transfections were performed with Lipofectamine 2000 reagent (Invitrogen) following the manufacturer's instructions. The human HEK-293T cell line (ATCC) was cultured in DMEM (Invitrogen) supplemented with 10% FBS (Invitrogen). Cells were plated at a density of 8×10^3 cells per well (96-well plates). Mir-34b-3p precursor, specific Anti-miR Mir-34b-3p inhibitor, Anti-miR Negative Control #1, and Pre-miR Negative Control #1 were purchased from Ambion. Cells were co-transfected with luciferase reporter plasmids and a small RNA or inhibitor (as indicated) using siPort NeoFx reagent (Ambion) following manufacturer's protocol. Luciferase and Renilla activities were measured 24 h or 48 h after transfection using Dual-Glo luciferase assay system (Promega).

[9] = test system: aSyn translation; assay: Endogenous aSyn protein by ELISA normalized to total aSyn mRNA in SH-SY5Y cells (aSyn translation); format: cell-based, human; details: dopamine 100 uM for 24 h
Text: Mitochondria were purified using Qproteome Mitochondria Isolation Kit (Qiagen) and membrane fractions were isolated using Subcellular Protein Fractionation Kit (Pierce) following manufacturers' instructions. […] Absorbance was read on a VersaMax ELISA Microplate Reader (Molecular Devices, Inc) at 450 nm. The amount of human aSyn was normalized to total cellular protein as determined with the DC Protein Assay Reagent kit (Bio-Rad). Mitochondrial preparations were validated by Western blot analysis for Tom20 and synaptophysin (see FIG. 12d). RT-qPCR analyses were performed as described ^60. […] NO: 17 and […] NO: 18) […] NO: 19, […] NO: 20) were used. The human SH-SY5Y neuroblastoma cell line (ATCC) was cultured following the distributor's instructions. Cells were plated at a density of 4×10^5 cells per well (in 48-well plates) in wells coated with 0.1% gelatin (Specialty Media, Millipore) 24 hours prior to transfection. Transfections were performed with Lipofectamine 2000 reagent (Invitrogen) following the manufacturer's instructions. The human HEK-293T cell line (ATCC) was cultured in DMEM (Invitrogen) supplemented with 10% FBS (Invitrogen). Cells were plated at a density of 8×10^3 cells per well (96-well plates). […] Luciferase and Renilla activities were measured 24 h or 48 h after transfection using Dual-Glo luciferase assay system (Promega).

[10] = test system: aSyn protein; assay: aSyn protein by ELISA in mitochondrial and membrane fractions of SH-SY5Y cells; format: cell-based, human; details: 100 μM for 48 h
Description: as §3

[11] = test system: aSyn protein; assay: Colocalization of aSyn and Mitotracker in primary cortical neuron cultures from PAC transgenic mice; format: cell-based; details: primary mouse cortical neurons, 100 μM for 24 h
Description: as §4
Immunostainings were done as previously described ^59 with Rabbit anti-aSyn (Santa Cruz, 1:200) or Mouse anti-Synaptophysin (Millipore, 1:100) as primary antibodies, and Alexa 555 goat anti-rabbit IgG or Alexa 633 goat anti-mouse IgG (Invitrogen) secondary antibodies. MitoTracker-Orange (Invitrogen, 1:10000) was added into media for 15-20 min in living cell culture. Collocalization analyses were done in R using EBImage package; using Pearson's correlation coefficient.

[12] = test system: aSynL:total ratio; details: GFP-aSyn wild-type 1.1 kb 3′UTR plasmid, lysed after 48 h
Description: Northern Blots were performed using the NorthernMax kit (Ambion) following manufacturer's instructions. 10 μg of total RNA was purified using miRNeasy kit (Qiagen) and loaded per lane.

[13] = rat primary cortical neurons, RT-qPCR, dopamine, picrotoxin, muscimol, NMDA 100 μM, kainic acid 50 μM, vs vehicle

Compound: N[C@@H](Cc1ccc(O)c(O)c1)C(=O)O [I-Dopa]
- aSynL:total ratio in midbrain tissue ([1]; 2 month-old control DAT-Cre/Dicer flox/+ mice, 20 mg/kg i.p. daily for 5 days with 12 mg/kg benserazide): significantly increased
- aSynL:total ratio in midbrain tissue ([1]; DAT-Cre/Dicer flox/flox mice deficient in mDNs, 20 mg/kg i.p. daily for 5 days): did not alter
- aSynL:total ratio in brain regions other than midbrain ([1]; such as striatal tissue, 20 mg/kg i.p. daily for 5 days): not apparent
- human aSyn protein in midbrain (ELISA, normalized to total protein) [2]: significantly increased
- human aSyn protein in other brain regions such as striatum or cortex [2]: not

Compound: CN[C@H](CC(=O)O)C(=O)O [NMDA]
- aSynL:total ratio [3, 13]: did not appear to impact

Compound: Cc1c2oc3c(C)ccc(C(=O)N[C@@H]4C(=O)N[C@H](C(C)C)C(=O)N5CCC[C@H]5C(=O)N(C)CC(=O)N(C)[C@@H](C(C)C)C(=O)O[C@@H]4C)c3nc-2c(C(=O)N[C@@H]2C(=O)N[C@H](C(C)C)C(=O)N3CCC[C@H]3C(=O)N(C)CC(=O)N(C)[C@@H](C(C)C)C(=O)O[C@@H]2C)c(N)c1=O [actinomycin D] (I: T[dV]P[Sar][NMeV] / II: T[dV]P[Sar][NMeV]; ester I:1-I:C, II:1-II:C; linker I:N-II:N via Actinocin(9to1))
- dopamine-mediated increase in aSynL:total ratio ([4]; actinomycin D 10 μg/mL with dopamine 100 μM, total RNA, 12 or 24 h): prevented the increase

Compound: NCCc1ccc(O)c(O)c1 [dopamine]
- aSynL:total ratio ([3]; dopamine 10 μM for 24 hrs, cells transfected with vector encoding DAT): significantly increased the sensitivity
- aSynL:total ratio ([3]; low extracellular dopamine 10 μM for 24 h, no DAT overexpression): resistant
- aSynL:total ratio [3, 13]: increase; also recorded: significantly increased
- aSynL:total ratio among the labeled RNA population ([5]; 100 μM dopamine exclusively during the pulse-labeling period): robust and durable increase
- aSynL:total ratio among the labeled RNA population ([5]; 100 μM dopamine exclusively post-labeling (chase)): did not produce any effect
- treatment time after which the increase of the aSynL:total ratio is detectable in the nascent RNA population ([5]; SH-SY5Y, dopamine): ≤ 4 h
- treatment time for the dopamine effect on aSynL:total ratio to become detectable in the total RNA population ([5]; SH-SY5Y, dopamine): at least 16 hrs
- increase in aSynL:total ratio in nascent RNA ([5]; dopamine 100 μM with EU for 4 h, captured EU-labeled RNA): robustly observed
- increase in aSynL:total ratio in total RNA ([5]; dopamine 100 μM with EU for 4 h, total RNA): not in total RNA
- aSynL:total ratio in total RNA ([4]; SH-SY5Y, dopamine 100 μM, 24 h, no actinomycin D): increase
- aSynL:total ratio (ratio of in situ hybridization signals) [6]: increase
- endogenous aSyn protein levels (ELISA, normalized to total protein) [7]: significantly increased
- dopamine-mediated increase in luciferase accumulation under VMAT2 overexpression ([8]; dopamine 100 μM for 48 h): suppressed
- dopamine-mediated increase in luciferase accumulation under VMAT2 overexpression ([8]; dopamine 100 μM for 48 h, listed as Dopamine): cancelled
- luciferase expression, Firefly/Renilla ratio, 1.1 kb human aSyn 3′UTR vector ([8]; SH-SY5Y, 100 μM for 24 h): increased
- luciferase expression, Firefly/Renilla ratio, short aSyn 3′UTR vector ([8]; SH-SY5Y): not observed
- luciferase expression, Firefly/Renilla ratio, short aSyn 3′UTR vector ([8]; SH-SY5Y, listed as Dopamine): do not influence
- aSyn 3′UTR mediated translation (luciferase) ([8]; SH-SY5Y, vector control, dopamine 100 μM for 48 h): potentiates
- aSyn translation: endogenous aSyn protein (ELISA) normalized to total aSyn mRNA [9]: significant increase
- aSyn content within total cell membrane fraction relative to whole cell lysate (ELISA) [10]: decreased; also recorded: reduction
- aSyn protein content in mitochondrial preparations relative to whole cell aSyn content (ELISA) [10]: increased proportion; also recorded: preferentially increased
- fraction of aSyn protein that colocalized with mitochondria (Mitotracker) [11]: significantly increased
- aSynL (1070 nt 3′UTR) transcript relative to shorter (300 nt 3′UTR) transcript, Northern blot [12]: increase

Compound: C=C(C)[C@H]1CN[C@H](C(=O)O)[C@H]1CC(=O)O [kainic acid]
- aSynL:total ratio [3, 13]: did not appear to impact
